Where two headings read alike, the source gives them in different places.
How the values were obtained:
GII.3-Pro [1] = molecular target: T1, GII.3-Pro (Norovirus Hu/Texas/TCH04-577/2004/US, UniProt B2DD26); assay: FRET protease assay, time-dependent inhibition; format: biochemical
T1 construct: mature protease cut from ORF1 polyprotein; tag cut with 3C protease when used

GII.3-Pro [2] = molecular target: GII.3-Pro (Norovirus Hu/Texas/TCH04-577/2004/US, UniProt B2DD26, R1120A); conditions: read-out: KI
GII.4-Pro Sydney [3] = molecular target: T2, GII.4-Pro Sydney (Norovirus Hu/GII.4/Sydney/NSW0514/2012/AU, UniProt K4L8Z7, R1120A); conditions: read-out: KI
From the text: (§1) FRET protease assay, time-dependent inhibition on GII.4-Pro Sydney

GII.4-Pro Sydney [4] = molecular target: T3, GII.4-Pro Sydney (Norovirus Hu/GII.4/Sydney/NSW0514/2012/AU, UniProt K4L8Z7); assay: FRET protease assay, time-dependent inhibition; format: biochemical
T3 construct: mature protease cut from ORF1 polyprotein; tag cut with 3C protease when used

GII.4-Pro Sydney [5] = molecular target: T2, GII.4-Pro Sydney; assay: biochemical; conditions: read-out: kinact/KI (M^-1s^-1)
From the text: as §1

GII.4-Pro Sydney [6] = molecular target: T3, GII.4-Pro Sydney; assay: FRET protease assay, time-dependent inhibition; format: biochemical; conditions: covalent; GII FRET peptide substrate; pH 8.0, 37 °C, 10 mM DTT; corrected for substrate competition
GII.4-Pro HOV [7] = test system: T4, GII.4-Pro HOV; assay: FRET protease assay, time-dependent inhibition; format: biochemical, Norovirus norwalkense; conditions: covalent; GII FRET peptide substrate; pH 8.0, 37 °C, 10 mM DTT; corrected for substrate competition
T4 construct: mature protease cut from ORF1 polyprotein; pET-46b(+) His-tag with thrombin site, E. coli XJb(DE3); tag cut with thrombin when used

GI.1-Pro [8] = molecular target: T5, GI.1-Pro (Norovirus Hu/1968/US, UniProt Q83883, R1212A); format: biochemical; conditions: covalent; tight-binding conditions, kchem approximation; GI.1 FRET peptide substrate; pH 8.0, 37 °C, 10 mM DTT; corrected for substrate competition
T5 construct: gene ORF1

GII.3-Pro [9] = molecular target: T1, GII.3-Pro; assay: FRET protease assay, time-dependent inhibition; format: biochemical; conditions: covalent; GII FRET peptide substrate; pH 8.0, 37 °C, 10 mM DTT; corrected for substrate competition
GI.1-Pro [10] = molecular target: T6, GI.1-Pro (Norovirus Hu/1968/US, UniProt Q83883); assay: FRET protease assay, time-dependent inhibition; format: biochemical
T6 construct: gene ORF1; mature protease cut from ORF1 polyprotein; pET-46b(+) His-tag with thrombin site, E. coli XJb(DE3); tag cut with thrombin when used
From the text: FRET protease assay, time-dependent inhibition on GI.1-Pro

GII.4-Pro HOV [11] = test system: GII.4-Pro HOV
From the text: FRET protease assay, time-dependent inhibition on GII.4-Pro HOV

[12] = molecular target: T7, (Norovirus norwalkense, UniProt A9YYE3); assay: FRET protease assay, time-dependent inhibition; format: biochemical
T7 construct: mature protease cut from ORF1 polyprotein; pET-46b(+) His-tag with thrombin site, E. coli XJb(DE3); tag cut with thrombin when used

Compound: CCOC(=O)/C=C/[C@H](C[C@@H]1CCNC1=O)NC(=O)[C@@H](CC(=O)[C@@H](NC(=O)c1cc(C)on1)C(C)C)Cc1ccc(F)cc1 [rupintrivir]
- kinact/KI (GII.3-Pro [1]): 5.34 ± 0.52 M⁻¹ s⁻¹
- KI (inactivation) (GII.3-Pro [2]): 94 ± 38 µM
- KI (inactivation) (GII.4-Pro Sydney [3]): 438 ± 299 µM
- kinact/KI (GII.4-Pro Sydney [4]): 3.73 ± 0.28 M⁻¹ s⁻¹
- kinact/KI (GII.4-Pro Sydney [5]): 4.53 ± 0.59 M⁻¹ s⁻¹
- KI (inactivation) (GII.4-Pro Sydney [6]): 1090 µM
- KI (inactivation) (GII.4-Pro HOV [7]): 457 ± 52 µM
- kinact/KI (GI.1-Pro [8]): 233.5 ± 8.8 M⁻¹ s⁻¹
- KI (inactivation) (GII.3-Pro [9]): 1310 µM
- kinact/KI (GI.1-Pro [10]): 294 ± 5.7 M⁻¹ s⁻¹
- kinact/KI (GII.4-Pro HOV [11]): 6.52 ± 0.77 M⁻¹ s⁻¹
- KI (inactivation) (GII.4-Pro HOV [11]; read-out: KI): 564 ± 513 µM
- kinact/KI [12]: 5.78 ± 0.21 M⁻¹ s⁻¹
